56 molecules from US10093678B2, “Azaspiro derivatives as TRPM8 antagonists” (RaQualia Pharma Inc., priority 2014, dated 2018) can be followed below.

Structures can show the parent of a compound that is named as a salt.

T1 sequence (Q7Z2W7 whole entry): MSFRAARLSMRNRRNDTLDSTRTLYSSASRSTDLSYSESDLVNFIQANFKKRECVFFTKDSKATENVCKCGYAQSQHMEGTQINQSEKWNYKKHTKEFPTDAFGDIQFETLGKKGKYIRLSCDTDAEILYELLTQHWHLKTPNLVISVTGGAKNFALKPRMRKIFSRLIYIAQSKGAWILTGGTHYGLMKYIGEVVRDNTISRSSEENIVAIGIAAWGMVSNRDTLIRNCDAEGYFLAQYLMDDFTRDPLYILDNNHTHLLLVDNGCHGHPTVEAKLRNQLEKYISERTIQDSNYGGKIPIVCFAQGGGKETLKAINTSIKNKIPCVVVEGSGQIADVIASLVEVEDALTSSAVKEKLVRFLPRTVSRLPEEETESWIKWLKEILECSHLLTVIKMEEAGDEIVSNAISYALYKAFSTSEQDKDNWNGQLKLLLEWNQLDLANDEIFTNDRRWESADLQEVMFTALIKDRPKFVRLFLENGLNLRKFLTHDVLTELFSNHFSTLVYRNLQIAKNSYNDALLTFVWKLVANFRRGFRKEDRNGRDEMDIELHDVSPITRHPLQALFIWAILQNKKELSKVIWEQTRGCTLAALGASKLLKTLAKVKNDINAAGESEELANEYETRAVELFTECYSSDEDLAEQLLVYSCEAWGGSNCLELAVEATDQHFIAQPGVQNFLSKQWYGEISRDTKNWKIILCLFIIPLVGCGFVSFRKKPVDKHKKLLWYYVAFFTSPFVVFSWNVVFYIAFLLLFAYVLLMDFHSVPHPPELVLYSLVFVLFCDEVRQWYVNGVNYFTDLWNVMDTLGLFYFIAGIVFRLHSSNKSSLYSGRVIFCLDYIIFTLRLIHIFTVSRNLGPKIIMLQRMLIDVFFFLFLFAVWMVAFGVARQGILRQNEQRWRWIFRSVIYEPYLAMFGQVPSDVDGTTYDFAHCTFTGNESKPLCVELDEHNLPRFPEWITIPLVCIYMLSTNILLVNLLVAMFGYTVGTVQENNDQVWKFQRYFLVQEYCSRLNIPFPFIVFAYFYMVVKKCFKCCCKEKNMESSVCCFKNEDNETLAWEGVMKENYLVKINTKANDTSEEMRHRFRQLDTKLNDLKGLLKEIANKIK

This assay concerns the target T1, human TRPM8 (Homo sapiens, UniProt Q7Z2W7).
T1 construct: expressed in transfected cells; host or cells: HEK293
Description: Menthol-induced Ca2+ influx in HEK293 cells stably expressing human TRPM8. Particulars: 30 microM menthol-induced Ca2+ influx, read-out: IC50 against TRPM8. The assay is classed as cell-based. On the procedure:
Measurement of the Menthol-Induced Ca^2+ Influx in HEK293 Cells Stably Expressing Human TRPM8
A cell-based Ca^2+ influx assay using HEK293 cells stably expressing human TRPM8 is used to identify the activity of compounds.
HEK293 cells stably expressing human TRPM8 are grown in T175 flasks at 37° C. in a 5% CO2 humidified incubator to about 80% confluence. Media composition consists of Dulbecco's Modified Eagle Medium (high glucose), 10% fetal calf serum (FCS), 100 units/mLPenicillin, 100 microg/mL Streptomycin and 600 microg/mL Geneticine. At 24 hours prior to assay, cells are seeded in poly-D-lysine coated 384-well plates (BD FALCON) at a density of 30,000 cells per well in culture medium and grown overnight in 5% CO2 at 37° C. On the assay day, growth media is removed and cells are loaded with 0.5 microM Fluo4-AM (Molecular Probes) and 0.005% Pluronic F-127 dissolved in assay buffer (Hank's balanced salt solution (HBSS), 19.4 mM HEPES pH7.4, 2.5 mM Probenecid) for 1 hour at room temperature. After washing with assay buffer, the cells are preincubated with various concentrations of the compounds for 5 min. The changes in intracellular calcium concentration by addition of 30 microM menthol are monitored by the cell imaging technology by Hamamatsu Photonics Functional Drug Screening System (FDSS).
The IC50 values for compounds of the present invention are determined from 11-point dose-response studies. Curves are generated using the average of duplicate wells for each data point. Finally, the IC50 values are calculated with the best-fit dose curve determined by XLfit (ID Business Solutions Ltd.).
As a reminder, the IC50 is the concentration needed to halve the response being measured. For `Cc1nc(-c2ccc(C(=O)CN3C(=O)NC4(CCC(F)(F)CC4)C3=O)cc2)c2ccccc2n1` [Example 6-33], the IC50 was less than 0.1 µM.

Take `Cc1ncncc1-c1ccc(C(=O)CN2C(=O)NC3(CCC(F)(F)CC3)C2=O)cc1` [Example 6-34]: the IC50 was less than 0.1 µM.

Take `O=C(CN1C(=O)NC2(CCC(F)(F)CC2)C1=O)c1ccc(-c2cccc(O)c2)cc1` [Example 6-35]: the IC50 is less than 0.1 µM.

Turning to `O=C(CN1C(=O)NC2(CCC(F)(F)CC2)C1=O)c1ccc(-c2ncccc2CO)cc1` [Example 6-36], the IC50 is less than 0.1 µM.

As for `O=C(CN1C(=O)NC2(CCC(F)(F)CC2)C1=O)c1ccc(-c2nccc3cnccc23)cc1` [Example 6-37], the 50% inhibitory concentration (IC50) is less than 0.1 µM.

As to `O=C(CN1C(=O)NC2(CCC(F)(F)CC2)C1=O)c1ccc(-c2cccn3ccnc23)cc1` [Example 6-38], the IC50 was less than 0.1 µM.

In the case of `CCOc1ncccc1-c1ccc(C(=O)CN2C(=O)NC3(CCC(F)(F)CC3)C2=O)cc1` [Example 6-39], the IC50 is less than 0.1 µM.

Turning to `CC(O)c1ccccc1-c1ccc(C(=O)CN2C(=O)NC3(CCC(F)(F)CC3)C2=O)cc1` (centres unmarked) [Example 6-40], the IC50 was less than 0.1 µM.

`O=C(CN1C(=O)NC2(CCC(F)(F)CC2)C1=O)c1ccc(-c2cnccc2C(F)(F)F)cc1` [Example 6-41]: the IC50 was less than 0.1 µM.

Take `O=C1Cc2c(-c3ccc(C(=O)CN4C(=O)NC5(CCC(F)(F)CC5)C4=O)cc3)ccnc2N1` [Example 6-42]: the IC50 was less than 0.5 µM.

For `N#Cc1ccnnc1-c1ccc(C(=O)CN2C(=O)NC3(CCC(F)(F)CC3)C2=O)cc1` [Example 6-43], the IC50 is less than 0.1 µM.

As to `O=C(CN1C(=O)NC2(CCC(F)(F)CC2)C1=O)c1ccc(-c2nccc3ccncc23)cc1` [Example 6-44], the IC50 was less than 0.1 µM.

For `O=C(CN1C(=O)NC2(CCC(F)(F)CC2)C1=O)c1ccc(-c2cccc3ncncc23)cc1` [Example 6-45], the half-maximal inhibitory concentration (IC50) was less than 0.1 µM.

For `O=C(CN1C(=O)NC2(CCC(F)(F)CC2)C1=O)c1ccc(-c2cccnc2NCCO)cc1` [Example 6-46], the 50% inhibitory concentration (IC50) is less than 0.5 µM.

As to `O=C(CN1C(=O)NC2(CCC(F)(F)CC2)C1=O)c1ccc(-c2cccnc2N2CC(O)C2)cc1` [Example 6-48], the IC50 was less than 0.5 µM.

As for `O=C(CN1C(=O)NC2(CCC(F)(F)CC2)C1=O)c1ccc(-c2cccc3c2CC(O)C3)cc1` (centres unmarked) [Example 6-49], the 50% inhibitory concentration (IC50) is less than 0.5 µM.

For the molecule `O=C(CN1C(=O)NC2(CCC(F)(F)CC2)C1=O)c1ccc(-c2cccc3c2C(O)CC3)cc1` (centres unmarked) [Example 6-50], the IC50 was less than 0.5 µM.

For the molecule `O=C(CN1C(=O)NC2(CCC(F)(F)CC2)C1=O)c1ccc(-c2ncnc3cnccc23)cc1` [Example 6-51], the IC50 is less than 0.5 µM.

Consider `O=C1CCc2c(cccc2-c2ccc(C(=O)CN3C(=O)NC4(CCC(F)(F)CC4)C3=O)cc2)N1` [Example 6-52], for which the half-maximal inhibitory concentration (IC50) is less than 0.5 µM.

Regarding `CS(=O)(=O)c1ccccc1-c1ccc(C(=O)CN2C(=O)NC3(CCC(F)(F)CC3)C2=O)cc1` [Example 6-53], the IC50 is less than 0.5 µM.

As to `O=C(CN1C(=O)NC2(CCC(F)(F)CC2)C1=O)c1ccc(-c2nccnc2OCCO)cc1` [Example 6-54, 8,8-difluoro-3-(2-(4-(3-(2-hydroxyethoxy)pyrazin-2-yl)phenyl)-2-oxoethyl)-1,3-diazaspiro[4.5]decane-2,4-dione], the IC50 is less than 0.1 µM.

As for `NCc1ccccc1-c1ccc(C(=O)CN2C(=O)NC3(CCC(F)(F)CC3)C2=O)cc1` [Example 6-55, 3-(2-(2′-(aminomethyl)-[1,1′-biphenyl]-4-yl)-2-oxoethyl)-8,8-difluoro-1,3-diazaspiro[4.5]decane-2,4-dione hydrochloride], the IC50 is less than 0.1 µM.

Regarding `NCc1ncccc1-c1ccc(C(=O)CN2C(=O)NC3(CCC(F)(F)CC3)C2=O)cc1` [Example 6-56, 3-(2-(4-(2-(aminomethyl)pyridin-3-yl)phenyl)-2-oxoethyl)-8,8-difluoro-1,3-diazaspiro[4.5]decane-2,4-dione], the IC50 was less than 0.5 µM.

`CC(=O)NCc1ncccc1-c1ccc(C(=O)CN2C(=O)NC3(CCC(F)(F)CC3)C2=O)cc1` [Example 6-57, N-((3-(4-(2-(8,8-difluoro-2,4-dioxo-1,3-diazaspiro[4.5]decan-3-yl)acetyl)phenyl)pyridin-2-yl)methyl)acetamide]: the IC50 is less than 0.1 µM.

Take `NCc1ccncc1-c1ccc(C(=O)CN2C(=O)NC3(CCC(F)(F)CC3)C2=O)cc1` [Example 6-58, 3-(2-(4-(4-(aminomethyl)pyridin-3-yl)phenyl)-2-oxoethyl)-8,8-difluoro-1,3-diazaspiro[4.5]decane-2,4-dione]: the IC50 was less than 0.1 µM.

Consider `O=C(CN1C(=O)NC2(CCC(F)(F)CC2)C1=O)c1ccc(-c2ncnc3ncccc23)cc1` [Example 6-59], for which the IC50 is less than 0.5 µM.

On to `O=C(CN1C(=O)NC2(CCC(F)(F)CC2)C1=O)c1ccc(-c2nccc3cn[nH]c23)cc1` [Example 6-62], for which the IC50 is less than 0.5 µM.

Consider `O=C(CN1C(=O)NC2(CCC(F)(F)CC2)C1=O)c1ccc(-c2ncc3ccccn23)cc1` [Example 6-63], for which the IC50 is less than 0.1 µM.

On to `O=C(CN1C(=O)NC2(CCC(F)(F)CC2)C1=O)c1ccc(-c2ncn3ccccc23)cc1` [Example 6-64], for which the IC50 was less than 0.5 µM.

Turning to `Cc1nc2c(-c3ccc(C(=O)CN4C(=O)NC5(CCC(F)(F)CC5)C4=O)cc3)cccc2[nH]1` [Example 6-65], the IC50 is less than 0.5 µM.

As for `O=C(CN1C(=O)NC2(CCC(F)(F)CC2)C1=O)c1ccc(-c2cnn3ccccc23)cc1` [Example 6-67], the IC50 was less than 0.1 µM.

As for `O=C(CN1C(=O)NC2(CCC(F)(F)CC2)C1=O)c1ccc(-c2cnn3cccnc23)cc1` [Example 6-68], the IC50 was less than 0.1 µM.

Consider `Cn1cc2c(-c3ccc(C(=O)CN4C(=O)NC5(CCC(F)(F)CC5)C4=O)cc3)cccc2n1` [Example 6-69], for which the IC50 was less than 0.5 µM.

Regarding `O=C(CN1C(=O)NC2(CCC(F)(F)CC2)C1=O)c1ccc(-c2cccc3c2CCN3)cc1` [Example 6-72], the IC50 is less than 0.5 µM.

On to `Cc1c(N)cncc1-c1ccc(C(=O)CN2C(=O)NC3(CCC(F)(F)CC3)C2=O)cc1` [Example 6-76], for which the IC50 was less than 0.1 µM.

Regarding `Cc1ccc(C)c(-c2ccc(C(=O)CN3C(=O)NC4(CCC(F)(F)CC4)C3=O)cc2)c1` [Example 6-78], the IC50 was less than 0.5 µM.

For `Nc1cccnc1-c1ccc(C(=O)CN2C(=O)NC3(CCC(F)(F)CC3)C2=O)cc1` [Example 6-80], the IC50 is less than 0.5 µM.

As to `O=C(CN1C(=O)NC2(CCC(F)(F)CC2)C1=O)c1ccc(-c2cnc3ccccn23)cc1` [Example 6-81], the IC50 is less than 0.1 µM.

Turning to `Cc1cccnc1-c1ccc(C(=O)CN2C(=O)NC3(CCC(F)(F)CC3)C2=O)cc1` [Example 6-82], the IC50 was less than 0.5 µM.

Take `COc1cccnc1-c1ccc(C(=O)CN2C(=O)NC3(CCC(F)(F)CC3)C2=O)cc1` [Example 6-84]: the IC50 was less than 0.1 µM.

On to `O=C(CN1C(=O)NC2(CCC(F)(F)CC2)C1=O)c1ccc(-c2nccn3ccnc23)cc1` [Example 6-85], for which the IC50 was less than 0.5 µM.

Turning to `N#Cc1cccnc1-c1ccc(C(=O)CN2C(=O)NC3(CCC(F)(F)CC3)C2=O)cc1` [Example 6-87], the IC50 is less than 0.1 µM.

Regarding `COc1cncc(-c2ccc(C(=O)CN3C(=O)NC4(CCC(F)(F)CC4)C3=O)cc2)c1` [Example 6-90], the IC50 was less than 0.5 µM.

Take `Cc1ccc(C#N)c(-c2ccc(C(=O)CN3C(=O)NC4(CCC(F)(F)CC4)C3=O)cc2)n1` [Example 6-92]: the IC50 was less than 0.1 µM.

`N#Cc1cncnc1-c1ccc(C(=O)CN2C(=O)NC3(CCC(F)(F)CC3)C2=O)cc1` [Example 6-93]: the concentration for half-maximal inhibition (IC50) was less than 0.5 µM.

`O=C(CN1C(=O)NC2(CCC(F)(F)CC2)C1=O)c1ccc(-c2nccs2)cc1` [Example 6-95]: the IC50 is less than 0.5 µM.

Take `O=C(CN1C(=O)NC2(CCC(F)(F)CC2)C1=O)c1ccc(-c2ccc3ccncc3c2)cc1` [Example 6-96]: the IC50 was less than 0.5 µM.

For `COc1nccnc1-c1ccc(C(=O)CN2C(=O)NC3(CCC(F)(F)CC3)C2=O)cc1` [Example 6-97], the IC50 is less than 0.1 µM.

As to `N#Cc1cnccc1-c1ccc(C(=O)CN2C(=O)NC3(CCC(F)(F)CC3)C2=O)cc1` [Example 6-98], the IC50 is less than 0.1 µM.

With `NC(=O)c1ccccc1-c1ccc(C(=O)CN2C(=O)NC3(CCC(F)(F)CC3)C2=O)cc1` [Example 6-99], the IC50 is less than 0.5 µM.

As to `O=C(CN1C(=O)NC2(CCC(F)(F)CC2)C1=O)c1ccc(-c2cnccn2)cc1` [Example 6-100], the IC50 is less than 0.5 µM.

For the molecule `CC(=O)c1ccccc1-c1ccc(C(=O)CN2C(=O)NC3(CCC(F)(F)CC3)C2=O)cc1` [Example 6-102], the IC50 was less than 0.5 µM.

For `O=C(CN1C(=O)NC2(CCC(F)(F)CC2)C1=O)c1ccc(-c2ccccc2CN2CCCC2)cc1` [Example 6-104], the IC50 is less than 0.5 µM.

Take `O=C(CN1C(=O)NC2(CCC(F)(F)CC2)C1=O)c1ccc(-c2ccccc2CCO)cc1` [Example 6-106]: the IC50 is less than 0.1 µM.

For `N#CCc1ccccc1-c1ccc(C(=O)CN2C(=O)NC3(CCC(F)(F)CC3)C2=O)cc1` [Example 6-108], the IC50 was less than 0.1 µM.

Take `NC(=O)c1cccc(-c2ccc(C(=O)CN3C(=O)NC4(CCC(F)(F)CC4)C3=O)cc2)c1` [Example 6-110]: the IC50 was less than 0.5 µM.
